System: perfused rat stomach
Assay: antisecretory activity in the perfused rat stomach (inhibition of histamine- or pentagastrin-stimulated acid secretion)
Format: in vivo
Conditions: iv, amount required to inhibit the histamine- or pentagastrin-stimulated secretion by 50 %, two to four rats per determination, read-out: ID50 (μmoles/kg) Rat perfused stomach i.v.
Protocol: Compounds of this invention were tested for […]- tory activity in the perfused rat stomach. The method of Gosh and Schild, Brit. […] After the secretion plateau was reached, the test compound was administered i.v. and the amount of comound required to inhibit the stimulated secretion by 50 % was determined. Two to four rats were used for each determination. [drawing 17]

Compound | ED50
CN(C)C1=NS(=O)(=O)N=C(NCCSCc2csc(N=C(N)N)n2)N1C [-N(CH3)2] | 0.095 µmol/kg
CN1C(N)=NS(=O)(=O)N=C1NCCSCc1csc(N=C(N)N)n1 [-NH2, 3-N-[2-[(2-Guanidino-4-thiazolyl)methylthio]-ethyl]-amino-4-methyl-5-amino-1,2,4,6-thiatriazine-1,1-dioxide] | 0.15 µmol/kg
CC(C)NC1=NS(=O)(=O)N=C(NCCSCc2csc(N=C(N)N)n2)N1C [-NH-CH(CH3)2] | 0.28 µmol/kg
C#CCNC1=NS(=O)(=O)N=C(NCCSCc2csc(N=C(N)N)n2)N1C [-NHCH2C≡CH] | 0.12 µmol/kg
CN1C(NC#N)=NS(=O)(=O)N=C1NCCSCc1csc(N=C(N)N)n1 [-NHCN] | 0.34 µmol/kg
CN/C(=N/CCSCc1nc[nH]c1C)NC#N [Cimetidine, reference compound] | 10.8 µmol/kg

Source: EP0104611A2, “Thiatriazine derivatives” (HOECHST UK LIMITED, priority 1982, dated 1984)
